Test results as given in PMC8775498, “Development of Cobalt-Binding Peptide Chelate from Human Serum Albumin: Cobalt-Binding Properties and Stability” (International Journal of Molecular Sciences, 2022).
Where a SMILES comes first, the peptide text is derived from it.

Assays:
[1] = in vitro; type: cell-based, rat; conditions: mouse, RAW 264.7 cells
Protocol: (§1) RAW 264.7 and HEK 293T cells were cultured at 37 °C under 5% CO2 in 95% DMEM supplemented with 10% FBS and 1% P/S antibiotics. The RAW 264.7 and HEK 293T cells were harvested in 3 mL of DMEM, and centrifugation was performed at 1200× g using the AllegraTM X-12R centrifuge (BECKMAN COULTER). The cell pellet was resuspended in 1 mL of DMEM. The number of cells was counted using a hemocytometer. The cell viability was measured using MTT assay according to the method of Mirzapour-Kouhdasht, Moosavi-Nasab, with a few modifications. The cells were first plated at a density of a 5 × 10^4 cells/well in a 96-well plate. After overnight incubation, the wAlb12 and wAlb12 + Co(II) each dissolved in buffer were used to treat the cells by concentration, which were then incubated for 24 h at 37 °C. Next, 10 µL of 5 mg mL^−1 MTT stock solution was added to each well, and the plate was incubated for 4 h at 37 °C. Next, the medium was removed and 100 µL of DMSO was added to each well to lyse the cells. The treated cells were incubated at 37 °C for 20 min and their absorbance was measured at a wavelength of 600 nm using an ELISA reader (Autobio, Phomo). The percentage viability was calculated using the following formula:Cell viability (%) = [(As) − (Ab)]/[(Ac) − (Ab)] × 100 where As, Ab, and Ac are the absorbance values of the peptide-treated cells, blank, and control samples, respectively.

[2] = system: HEK 293T cells; type: cell-based, human
Protocol: as §1

[3] = LC-MS analysis of Co(II) binding (alanine scanning analogs); conditions: 0.5 mM peptide mixed with 0.5 mM CoCl2; judged by change in molecular weight (about 56) and retention time in LC-MS
Protocol: A mutation was performed to identify the binding properties of wAlb12. […] amino acids of wAlb12 were substituted with alanine and the remaining alanine of wAlb12 was substituted with serine (D1A, A2S, H3A, K4A, S5A, E6A, V7A, A8S, H9A, R10A, F11A, and K12A). In addition, the N-terminal region of wAlb12 was acetylated (Ac-wAlb12). The only N-terminal α-amino group of wAlb12 was acetylated under 70% DCM, 25% acetic anhydride, and 5% triethylamine for 2 h after Fmoc cleavage by 20% piperidine. All of the analogs were synthesized by SPPS, and the purity and molecular weight were confirmed using liquid chromatography-mass spectrometry (LC-MS). The high-performance liquid chromatography (HPLC) gradient program was set up with 5% to 35% buffer B for 15 min, and the molecular weights of the prepared analogs were confirmed using MS in the range of 200 to 1800 m/z.
To verify the binding of peptides to Co(II), HPLC and LC-MS were performed to confirm the retention time and molecular weight. RT-HPLC analyses were performed using Shimadzu 10AD system with a Sunfire® column (C18 5 μm 4.6 mm × 250 mm, Waters, Milford, MA, USA) and a flow rate of 1 mL/min with buffer B (100% acetonitrile containing 0.05% TFA) and buffer A (100% H2O containing 0.05% TFA). The eluted components were monitored at an absorbance of 230 nm with a gradient from 5% to 35% of buffer B for 15 min. […]

Row | Compound | viability at 24 h [1] [%] | toxicity to HEK 293T cells [2] | Binding (adding Co(II)) [3]
1 | CC(C)[C@H](NC(=O)[C@H](CCC(=O)O)NC(=O)[C@H](CO)NC(=O)[C@H](CCCCN)NC(=O)[C@H](Cc1c[nH]cn1)NC(=O)[C@H](C)NC(=O)[C@@H](N)CC(=O)O)C(=O)N[C@@H](C)C(=O)N[C@@H](Cc1c[nH]cn1)C(=O)N[C@@H](CCCNC(=N)N)C(=O)N[C@@H](Cc1ccccc1)C(=O)N[C@@H](CCCCN)C(N)=O [wAlb12] (H-DAHKSEVAHRFK-NH2) | > 100 | non-toxic | –
2 | Ac-DAHKSEVAHRFK [Ac-wAlb12, wAlb12 with acetylated N-terminal α-amino group] | – | – | not bound and No
